Data taken from patent US6403554B2, “Polyunsaturated fatty acid derivatives and their use” (Ardenia Investments Ltd., priority 1998, dated 2002).
Entries after “also recorded” stand apart in the source; their conditions may differ.

What was measured:
[1] = system: hemagglutinating antibodies in serum; experiment: Humoral immune response: titers of hemagglutinating antibodies in serum; type: in vivo, C57B1/6 mice; settings: serum, female mice
Protocol: (§1) 0.15 ml of compound 10 was administered intravenously to 6 mice females of CS7B1/6 line (weight 18-22 g) in doses of 45.5, 91 and 136.5 μg of compound 10 per capita for each testing group according to the dose. Simultaneously, a suspension of 5·10^7 sheep erythrocytes was injected intraperitoneally (0.2 ml per capita). Mice in the control group were injected intravenously with equal volume of saline. The effects of compound 10 on humoral immune response were analyzed both by counting the quantity of AFC in the spleen according to Cunningham (per 10^6 spleen cells and per spleen) and estimating the titers of hemagglutining antibodies in serum of the animals (Cunningham A. J., Nature, 1965, Vol.207, No 5001. P.1106-1107), while the titers of hemagglutinating antibodies were evaluated according to litterature (Evans J. et al., Cell, 1974; Vol 3., p.153-158, Feizi T., Menger E., Transfusion, 1970, Vol. 10, p.33-35,).
(§2) 0.15 ml of compound 11 was administered intravenously to 6 female mice of the C57B1/6 line (weight 18-22 g) in doses of 45.5, 91 and 136.5 μg of compound 11 per capita for each testing group according to the dose. Simultaneously, a suspension of 5·10^7 sheep erytrocytes was injected intraperitoneally (0.2 ml per capita). Mice in the control group were injected intravenously with an equal volume of saline. The effects of compound 11 on humoral immune response was analysed both by counting the quantity of AFC in the spleen according to Cunningham (per 10^6 spleen cells and per spleen) and estimating the titers of hemagglutining antibodies in serum of the animals.
as §2, with “12” for “11”, “erythrocytes” for “erytrocytes”, “analyzed” for “analysed”
as §2, with “compound 8” for “compound 11”, “sheep erythrocytes” for “sheep erytrocytes”, “Mice of” for “Mice in”, “response were analyzed” for “response was analysed”
as §2, with “compound 3” for “compound 11”, “Mice of” for “Mice in”, “with” for “with an”, “response were” for “response was”
0.15 ml of compound 4 was administered intravenously to 6 female mice of the C57B1/6 line (weight 18-22 g) in a doses of 45.5, 91 and 136.5 μg of compound 4 per capita for each testing group according to the dose. Simultaneously, a suspension of 5·10^7 sheep erythrocytes was injected intraperitoneally (0.2 ml per capita). […]

[2] = system: antibody-forming cells (AFC) in the spleen; experiment: Influence of compound on humoral immune response to sheep erythrocytes, C57B1/6 female mice (AFC in spleen, hemagglutinins); type: in vivo; settings: for Amount of antibody-forming cells per 10^6 spleen cells / Amount of antibody-forming cells per spleen / Effect on relative amount of AFC (per 10^6 spleen cells) / Effect on total AFC amount (per spleen) / Effect on hemagglutinin titers / Spleen index / Amount of hemagglutinins: i.v.; for Amount of antibody-forming cells per 10^6 spleen cells / Amount of antibody-forming cells per spleen / Effect on relative amount of AFC (per 10^6 spleen cells) / Effect on total AFC amount (per spleen): 5th day; for Amount of antibody-forming cells per 10^6 spleen cells / Amount of antibody-forming cells per spleen: M ± SEM; for Effect on relative amount of AFC (per 10^6 spleen cells) / Effect on total AFC amount (per spleen) / Effect on hemagglutinin titers: vs control; for Spleen index: with SRBC i.p.; for Immunogenic activity: 45.5 and 91 μg/mouse; for Amount of hemagglutinins: serum
Protocol: The increase was calculated as compared with the amount of cells in the animals immunised only with sheep erythrocytes.
as §1, §2
as §2, with “12” for “11”, “erythrocytes” for “erytrocytes”, “analyzed” for “analysed”
as §2, with “compound 8” for “compound 11”, “sheep erythrocytes” for “sheep erytrocytes”, “Mice of” for “Mice in”, “response were analyzed” for “response was analysed”
0.15 ml of compound 3 was administered intravenously to 6 female mice of the C57B1/6 line (weight 18-22 g) in doses of 45.5, 91 and 136.5 μg of compound 3 per capita for each testing group according to the dose. Simultaneously, a suspension of 5·10^7 sheep erytrocytes was injected intraperitoneally (0.2 ml per capita). Mice of the control group were injected intravenously with equal volume of saline.

Compound | Amount of antibody-forming cells per 10^6 spleen cells ([2]; 45.5 μg/mouse) | Amount of antibody-forming cells per spleen ([2]; 45.5 μg/mouse) | Effect on relative amount of AFC (per 10^6 spleen cells) ([2]; 45.5 μg/mouse) | Effect on total AFC amount (per spleen) ([2]; 45.5 μg/mouse) | Effect on hemagglutinin titers ([2]; 45.5 μg/mouse) | Spleen index ([2]; 45.5 μg/mouse) | Amount of antibody-forming cells per 10^6 spleen cells ([2]; 91 μg/mouse) | Amount of antibody-forming cells per spleen ([2]; 91 μg/mouse) | Effect on relative amount of AFC (per 10^6 spleen cells) ([2]; 91 μg/mouse) | Effect on total AFC amount (per spleen) ([2]; 91 μg/mouse) | Effect on hemagglutinin titers ([2]; 91 μg/mouse) | Spleen index ([2]; 91 μg/mouse) | immunostimulating action ([2]; 136.5 μg/mouse) | Amount of antibody-forming cells per 10^6 spleen cells ([2]; 136.5 μg/mouse) | Amount of antibody-forming cells per spleen ([2]; 136.5 μg/mouse) | Effect on hemagglutinin titers ([2]; 136.5 μg/mouse) | Spleen index ([2]; 136.5 μg/mouse) | Immunogenic activity [2] | also measured
CC/C=C\C/C=C\C/C=C\C/C=C\C/C=C\C/C=C\CCC(=O)N[C@H](C(=O)O)[C@@H](C)OP(=O)(O)O [Compound 11, N-docosahexaenoyl-o-phospho-L-threonine] |  |  |  |  |  |  |  |  |  |  |  |  |  |  |  |  |  |  | Amount of hemagglutinins ([1]; 45.5 μg/mouse i.v.): 8.3 ± 0.3 Log2 T; Amount of hemagglutinins ([1]; 91 μg/mouse i.v.): 8.0 ± 0.5 Log2 T; Amount of hemagglutinins ([1]; 136.5 μg/mouse i.v.): 9.3 ± 0.2 Log2 T
CC/C=C\C/C=C\C/C=C\C/C=C\C/C=C\C/C=C\CCC(=O)N[C@@H](Cc1ccc(OP(=O)(O)O)cc1)C(=O)O [Compound 12, N-(cis-4,7,10,13,16,19-docosahexaenoyl)-O-phospho-L-tyrosine] | 263.8±23.6 cells per 10^6 spleen cells | 31.8±2.8 × 10^3 | −9.4 p >0.05% | −9.1 p >0.05% | +2.8 p >0.05% | 6.3 ± 0.3 10^−3 | 307.8±30.9 cells per 10^6 spleen cells | 40.2±2.7 × 10^3 | +5.7 p > 0.05% | +14.9 p > 0.05% | +2.8 p > 0.05% | 5.9 ± 0.3 10^−3 | high immunostimulating action | 682.6±33.3 cells per 10^6 spleen cells | 69.6±6.0 × 10^3 | +7.7 p > 0.05% | 6.3 ± 0.4 10^−3 | no immunogenic activity | 
CC/C=C\C/C=C\C/C=C\C/C=C\C/C=C\CCCC(=O)NCCOP(=O)(O)O [Compound 13, N-(cis-5,8,11,14,17-eicosapentaenoyl)-O-phospho-2-aminoethanol] | 608.2±61.3 cells per 10^6 spleen cells | 48.2±6.5 × 10^3 | −3.2 p > 0.05% | +5.0 p > 0.05% | +7,8 p > 0.05% | 5.4 ± 0.6 10^−3 | 525.0±97.2 cells per 10^6 spleen cells | 49.4±6.2 × 10^3 | −16.5 p > 0.05% | +7.6 p > 0.65% | +5,6 p > 0.05% | 5.7 ± 0.8 10^−3 | high immunostimulating action; also recorded: marked immunostimulating action | 885.9±65.8 cells per 10^6 spleen cells | 68.2±6.9 × 10^3 | +14,4 p > 0.05% | 5.3 ± 0.4 10^−3 | no immunogenic activity | 
CC/C=C\C/C=C\C/C=C\C/C=C\C/C=C\CCCC(=O)NCCOP(=O)(O)O [Compound 13, N-eicosapentaenoyl-o-phospho-2-aminoethanol] |  |  |  |  |  |  |  |  |  |  |  |  |  |  |  |  |  |  | Amount of hemagglutinins ([1]; 45.5 μg/mouse i.v.): 9.7 ± 1.2 Log2 T; Amount of hemagglutinins ([1]; 91 μg/mouse i.v.): 9.5 ± 1.2 Log2 T; Amount of hemagglutinins ([1]; 136.5 μg/mouse i.v.): 10.3 ± 0.9 Log2 T
CC/C=C\C/C=C\C/C=C\CCCCCCCC(=O)NCCOP(=O)(O)O [Compound 17, N-(cis-9,12,15-octadecatrienoyl)-O-phospho-2-aminoethanol] | 457.3±40.7 cells per 10^6 spleen cells | 51.1±4.4 × 10^3 | −3.0 p > 0.05% | −7.4 p > 0.05% |  | 5.8 ± 10^−3 | 523.8±45.3 cells per 10^6 spleen cells | 63.5±5.1 × 10^3 | +11.1 p > 0.05% | +15.0 p > 0.05% | +2.6 p > 0.05% | 5.7 ± 10^−3 | marked immunostimulating action | 619.6±38.9 cells per 10^6 spleen cells | 71.6±4.7 × 10^3 | +2.6 p > 0.05% | 5.9 ± 10^−3 | no immunogenic activity | Amount of hemagglutinins ([2]; 45.5 μg/mouse): 7.6 ± 0.2 Log2 T; Amount of hemagglutinins ([2]; 91 μg/mouse): 7.8 ± 0.3 Log2 T; Amount of hemagglutinins ([2]; 136.5 μg/mouse): 7.8 ± 0.4 Log2 T
CC/C=C\C/C=C\C/C=C\CCCCCCCC(=O)N[C@H](C(=O)O)[C@@H](C)OP(=O)(O)O [Compound 19, N-(cis-9,12,15-octadecatrienoyl)-O-phospho-L-threonine] | 454.7±57.9 cells per 10^6 spleen cells | 48.8±6.4 × 10^3 | +4.3 p > 0.05% | +5.4 p > 0.05% | +1,3 p > 005% | 6.2 ± 10^−3 | 473.2±44.5 cells per 10^6 spleen cells | 51.2±6.1 × 10^3 | +8.6 p > 0.05% | +10.6 p > 0.05% | +3.8 p > 0.05% | 6.4 ± 10^−3 | marked immunostimulating action | 612.5±47.3 cells per 10^6 spleen cells | 64.7±4.9 × 10^3 | +6.3 p > 0.05% | 6.5 ± 10^−3 | no immunogenic activity | 
CC/C=C\C/C=C\C/C=C\CCCCCCCC(=O)N[C@@H](Cc1ccc(OP(=O)(O)O)cc1)C(=O)O [Compound 20, N-(cis-9,12,15-octadecatrienoyl)-O-phospho-L-tyrosine] | 512.8±46.2 cells per 10^6 spleen cells | 46.4±4.8 × 10^3 | −9.8 p > 0.05% | −7.4 p > 0.05% |  | 6.3 ± 0.3 10^−3 | 634.5±51.7 cells per 10^6 spleen cells | 55.7±5.6 × 10^3 | +11.6 p > 0.05% | +11.2 p > 0.05% | +1.4 p > 0.05% | 6.5 ± 0.2 10^−3 | marked immunostimulating action | 845.1±43.1 cells per 10^6 spleen cells | 75.8±7.7 × 10^3 | +2.7 p > 0.05% | 6.4 ± 0.4 10^−3 | no immunogenic activity | 
